Data: PMC3634016, “The Calmodulin-Binding, Short Linear Motif, NSCaTE Is Conserved in L-Type Channel Ancestors of Vertebrate Cav1.2 and Cav1.3 Channels” (PLoS ONE, 2013)

Target: T1, Ca^2+-CaM (wild type rat calmodulin) (Rattus norvegicus, UniProt P0DP29)
T1 construct: made in house
Test: Isothermal titration calorimetry, peptide into Ca2+-CaM
Format: binding
Conditions: peptide titrated into Ca2+-CaM alone; 25 mM Tris-Cl pH 7.5, 75 mM NaCl, 0.5 mM CaCl2; 25°C; one-set-of-sites model; SEM printed separately in figure
Procedure: All peptides were resuspended in mili-Q deionized water to 1 mM stocks and stored at −80°C in small aliquots.
All ITC recordings were performed on a Microcal ITC200 from Microcal (Northampton, MA) at 25°C. In all experiments the buffer used was 25 mM Tris-Cl pH 7.5, 75 mM NaCl and 0.5 mM CaCl2 and was identical between cell and syringe. […] Data analysis was performed using Origin ITC200 Origin70 module with pre-loaded fitting equations for one- and two-sites models.

CC[C@H](C)[C@H](NC(=O)[C@H](C)NC(=O)[C@H](C)NC(=O)[C@H](CCC(N)=O)NC(=O)[C@H](Cc1c[nH]c2ccccc12)NC(=O)[C@@H](N)CO)C(=O)N[C@@H](CC(=O)O)C(=O)N[C@@H](C)C(=O)N[C@@H](C)C(=O)N[C@@H](CCCNC(=N)N)C(=O)N[C@@H](CCC(N)=O)C(=O)N[C@@H](C)C(=O)N[C@@H](CCCCN)C(=O)N[C@@H](CC(C)C)C(=O)N[C@@H](CCSC)C(=O)NCC(=O)N[C@@H](CO)C(=O)O [NSCaTECav1.2]
Kd: 0.83 µM
